Results reported in patent US20230165970A1, “COMPOSITIONS AND METHODS FOR THE TREATMENT OF BACTERIAL INFECTIONS” (priority 2017, published 2023).
Values after ≈ are worked out from the molar mass of the structure shown. Where two headings read alike, the source gives them in different places. *1 amine or outer side, *2 acyl side, *3 side chain or, on linkers, in order; H or OH if unused. Where a SMILES comes first, the peptide text is derived from it. Bridges are numbered along the chain shown (N, C = ends). Roman numbers before positions name the chains, in order. [ ]: non-standard residue; d: D form. The star is where a group is joined. X5 = C#CCOCCOCCOCCOCCN1C[C@@H](C(=O)[*:1])[C@H](C(=O)[*:2])C1; X2 = O=C([C@@H](N[*:1])[C@H](O)CCC(F)(F)F)[*:2]; Propargyl(OCH2CH2)4CO = C#CCOCCOCCOCCOCCC(=O)*; X3 = CCCCC[C@@H](O)[C@H](N[*:1])C(=O)[*:2]; azaDab = NCCN(N[*:1])C(=O)[*:2]; Aoc(2) = CCCCCC[C@H](N)C(=O)O; hLeu = CC(C)CC[C@H](N)C(=O)O; Nle = CCCC[C@H](N)C(=O)O; Dab = NCC[C@H](N)C(=O)O; azaGly = NNC(=O)O

Assays:
[1] = system: Ec 25922 64X-1 (COL^R); format: cell-based, Escherichia coli; details: media CA-MHB
[2] = system: Ec AR0349 (mcr-1, COL^R); format: cell-based, Escherichia coli; details: media CA-MHB
[3] = system: Ab 19606 (COLhet^R); format: cell-based, Acinetobacter baumannii; details: media CA-MHB
[4] = system: Ab AB58705 (COL^R) IpxD, mut. (no LPS); format: cell-based, Acinetobacter baumannii; details: media CA-MHB
[5] = system: Ab 8990 (COL^R); format: cell-based, Acinetobacter baumannii
Procedure, shortened: (§1)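 MHA colonies → 0.85% saline, OD600 ~0.1; 2-fold serial dilutions ×8 or ×12; conjugates in RPMI B; 35° C, 16-20 h. Pa LES431 ± 50% heat-inactivated FBS.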

[6] = system: Ab AB5075; format: cell-based, Acinetobacter baumannii; details: for MIC in RPMI AB 5075: pH 7.4
Procedure, shortened: as §1

[7] = system: Pa 27853; format: cell-based, Pseudomonas aeruginosa
Procedure, shortened: as §1

[8] = system: Pa LES431; format: cell-based, Pseudomonas aeruginosa
Procedure, shortened: as §1

[9] = system: Pa PAO1; format: cell-based, Pseudomonas aeruginosa; details: for MIC in RPMI PA 01: PAO1, pH 7.4
Procedure, shortened: as §1

[10] = system: A. baumannii AB5075; test: Lethal A. baumannii lung infection (mouse pneumonia) model, survival; format: in vivo, Acinetobacter baumannii; details: mouse pneumonia model vs. AB5075; 5 mg/kg, twice intravenously, t=+1 h and +4 h; n=5

Compound | MIC [1] | MIC [2] | MIC [3] | MIC [4] | MIC ([5]; Ab 8990 (COL^R), media CA-MHB) | MIC [6] | MIC in RPMI AB 5075 [6] | MIC [7] | MIC [8] | MIC ([9]; PAO1) | MIC in RPMI PA 01 [9] | MIC ([6]; Ab AB5075, media CA-MHB) | MIC ([7]; Pa 27853, media CA-MHB) | MIC ([8]; Pa LES431 + FBS (50%, heat-inactivated), media CA-MHB) | MIC ([8]; Pa LES431, media CA-MHB) | MIC ([9]; Pa PAO1, media CA-MHB) | protection (survival over 5 days), FIG. 118 [10] | MIC [5] | protection (survival over 5 days), FIG. 119 [10]
C#CCOCCOCCOCCOCCC(=O)N[C@@H](CCC(C)C)C(=O)N[C@@H](CCN)C(=O)N[C@H](C(=O)NN(CCN)C(=O)N[C@H]1CCNC(=O)[C@H]([C@@H](C)O)NC(=O)[C@H](CCN)NC(=O)[C@H](CCN)NC(=O)[C@H](CC(C)C)NC(=O)[C@@H](Cc2ccccc2)NC(=O)[C@H](CCN)NC1=O)[C@@H](C)O [Int-127] ({Propargyl(OCH2CH2)4CO}-[hLeu][Dab]T[azaDab][Dab][Dab][dF]L[Dab][Dab]T; lactam 5-C) | 64 µg/mL (≈ 44.6 µM) | 8 µg/mL (≈ 5.58 µM) | 2 µg/mL (≈ 1.39 µM) | 64 µg/mL (≈ 44.6 µM) | >128 µg/mL | 2 µg/mL (≈ 1.39 µM) | 1.00 µg/mL (≈ 0.697 µM) | 2 µg/mL (≈ 1.39 µM) | 1 µg/mL (≈ 0.697 µM) | 2 µg/mL (≈ 1.39 µM) | 3.99 µg/mL (≈ 2.78 µM) |  |  |  |  |  |  |  | 
C#CCOCCOCCOCCOCCN1C[C@@H](C(=O)N[C@@H](CCCC)C(=O)N[C@@H](CCN)C(=O)N[C@H](C(=O)NNC(=O)N[C@H]2CCNC(=O)[C@H]([C@@H](C)O)NC(=O)[C@H](CCN)NC(=O)[C@H](CCN)NC(=O)[C@H](CC(C)C)NC(=O)[C@@H](Cc3ccccc3)NC(=O)[C@H](CCN)NC2=O)[C@@H](C)O)[C@H](C(=O)N[C@@H](CCCC)C(=O)N[C@@H](CCN)C(=O)N[C@H](C(=O)NNC(=O)N[C@H]2CCNC(=O)[C@H]([C@@H](C)O)NC(=O)[C@H](CCN)NC(=O)[C@H](CCN)NC(=O)[C@H](CC(C)C)NC(=O)[C@@H](Cc3ccccc3)NC(=O)[C@H](CCN)NC2=O)[C@@H](C)O)C1 [Int-120] (I: [Nle][Dab]T[azaGly][Dab][Dab][dF]L[Dab][Dab]T / II: [Nle][Dab]T[azaGly][Dab][Dab][dF]L[Dab][Dab]T; lactam I:5-I:C, II:5-II:C; linker I:N-II:N via X5) | 2 µg/mL (≈ 0.767 µM) | 2 µg/mL (≈ 0.767 µM) | 2 µg/mL (≈ 0.767 µM) | 4 µg/mL (≈ 1.53 µM) | >128 µg/mL |  |  |  |  |  |  | 2 µg/mL (≈ 0.767 µM) | 4 µg/mL (≈ 1.53 µM) | 8 µg/mL | 2 µg/mL (≈ 0.767 µM) | 4 µg/mL (≈ 1.53 µM) |  |  | 
C#CCOCCOCCOCCOCCC(=O)N[C@@H](CCCCCC)C(=O)N[C@@H](CCN)C(=O)N[C@H](C(=O)N[C@@H](CCN)C(=O)N[C@H]1CCNC(=O)[C@H]([C@@H](C)O)NC(=O)[C@H](CCN)NC(=O)[C@H](CCN)NC(=O)[C@H](CC(C)C)NC(=O)[C@@H](Cc2ccccc2)NC(=O)[C@H](CCN)NC1=O)[C@H](O)CCC(F)(F)F [Int-118] ({Propargyl(OCH2CH2)4CO}-[Aoc(2)][Dab][X2][Dab][Dab][Dab][dF]L[Dab][Dab]T; lactam 5-C) |  |  |  |  |  | 1 µg/mL (≈ 0.654 µM) | 0.95 µg/mL (≈ 0.621 µM) | 2 µg/mL (≈ 1.31 µM) | 1 µg/mL (≈ 0.654 µM) | 2 µg/mL (≈ 1.31 µM) | 3.81 µg/mL (≈ 2.49 µM) |  |  |  |  |  | 40% | 128 µg/mL (≈ 83.7 µM) | 
C#CCOCCOCCOCCOCCC(=O)N[C@@H](CCC(C)C)C(=O)N[C@@H](CCN)C(=O)N[C@H](C(=O)NNC(=O)N[C@H]1CCNC(=O)[C@H]([C@@H](C)O)NC(=O)[C@H](CCN)NC(=O)[C@H](CCN)NC(=O)[C@H](CC(C)C)NC(=O)[C@@H](Cc2ccccc2)NC(=O)[C@H](CCN)NC1=O)[C@H](O)CCCCC [Int-116] ({Propargyl(OCH2CH2)4CO}-[hLeu][Dab][X3][azaGly][Dab][Dab][dF]L[Dab][Dab]T; lactam 5-C) | 64 µg/mL (≈ 44.2 µM) | 8 µg/mL (≈ 5.53 µM) | 1 µg/mL (≈ 0.691 µM) | 64 µg/mL (≈ 44.2 µM) | >128 µg/mL | 1 µg/mL (≈ 0.691 µM) | 1.05 µg/mL (≈ 0.726 µM) | 4 µg/mL (≈ 2.76 µM) | 4 µg/mL (≈ 2.76 µM) | 4 µg/mL (≈ 2.76 µM) | 8.41 µg/mL (≈ 5.81 µM) |  |  |  |  |  | 100% |  | 
C#CCOCCOCCOCCOCCC(=O)N[C@@H](CCCCCC)C(=O)N[C@@H](CCN)C(=O)N[C@H](C(=O)NN(CCN)C(=O)N[C@H]1CCNC(=O)[C@H]([C@@H](C)O)NC(=O)[C@H](CCN)NC(=O)[C@H](CCN)NC(=O)[C@H](CC(C)C)NC(=O)[C@@H](Cc2ccccc2)NC(=O)[C@H](CCN)NC1=O)[C@@H](C)O [Int-129] ({Propargyl(OCH2CH2)4CO}-[Aoc(2)][Dab]T[azaDab][Dab][Dab][dF]L[Dab][Dab]T; lactam 5-C) |  |  |  |  |  | 2 µg/mL (≈ 1.38 µM) |  | 4 µg/mL (≈ 2.76 µM) | 2 µg/mL (≈ 1.38 µM) | 8 µg/mL (≈ 5.53 µM) |  |  |  |  |  |  |  | 128 µg/mL (≈ 88.4 µM) | 60%
